# Assays:
# Assay type in all cases: biochemical
# MMP-9 = MMP-9 (Homo sapiens, UniProt P14780); test: MMP compound screening with Fluorimetric SensoLyte 390 Generic MMP Activity Kit, recombinant MMP-9
# Protocol: (§1) The activities were determined using Fluorimetric SensoLyte® 390 Generic MMP Activity Kit from Anaspec (cat # 72202). This assay kit can detect the activity of several MMPs such as MMP-1, 2, 7, 8, 9, 13, 14,15,16 and 24.
# (§2) For screening MMP compounds, activated 2 nM of recombinant MMP-2, 8, 9 or 13 are pre-incubated with MMP compound (inhibitor) for 30 min at 37°C. The substrate is added and the inhibition of MMP activity is expressed as % of total activity (without the inhibitor incubation).
# MMP-8 = MMP-8 (Homo sapiens, UniProt P22894); test: MMP compound screening with Fluorimetric SensoLyte 390 Generic MMP Activity Kit, recombinant MMP-8
# MMP-8, sequence (P22894 101-467, species assumed): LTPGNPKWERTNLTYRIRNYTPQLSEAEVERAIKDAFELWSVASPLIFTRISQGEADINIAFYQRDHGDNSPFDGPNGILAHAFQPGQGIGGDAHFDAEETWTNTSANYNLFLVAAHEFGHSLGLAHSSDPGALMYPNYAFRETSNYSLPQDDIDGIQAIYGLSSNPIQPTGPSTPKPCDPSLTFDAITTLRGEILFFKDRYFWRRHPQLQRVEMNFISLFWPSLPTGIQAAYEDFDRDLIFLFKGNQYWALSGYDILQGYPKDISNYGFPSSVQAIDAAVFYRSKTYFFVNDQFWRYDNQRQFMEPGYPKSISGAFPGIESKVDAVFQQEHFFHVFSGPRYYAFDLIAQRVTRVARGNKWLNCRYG
# Protocol: as §1, §2
# MMP-2 = biological target: T1, MMP-2 (Homo sapiens, UniProt P08253); test: MMP compound screening with Fluorimetric SensoLyte 390 Generic MMP Activity Kit, recombinant MMP-2
# T1 sequence (P08253 110-660): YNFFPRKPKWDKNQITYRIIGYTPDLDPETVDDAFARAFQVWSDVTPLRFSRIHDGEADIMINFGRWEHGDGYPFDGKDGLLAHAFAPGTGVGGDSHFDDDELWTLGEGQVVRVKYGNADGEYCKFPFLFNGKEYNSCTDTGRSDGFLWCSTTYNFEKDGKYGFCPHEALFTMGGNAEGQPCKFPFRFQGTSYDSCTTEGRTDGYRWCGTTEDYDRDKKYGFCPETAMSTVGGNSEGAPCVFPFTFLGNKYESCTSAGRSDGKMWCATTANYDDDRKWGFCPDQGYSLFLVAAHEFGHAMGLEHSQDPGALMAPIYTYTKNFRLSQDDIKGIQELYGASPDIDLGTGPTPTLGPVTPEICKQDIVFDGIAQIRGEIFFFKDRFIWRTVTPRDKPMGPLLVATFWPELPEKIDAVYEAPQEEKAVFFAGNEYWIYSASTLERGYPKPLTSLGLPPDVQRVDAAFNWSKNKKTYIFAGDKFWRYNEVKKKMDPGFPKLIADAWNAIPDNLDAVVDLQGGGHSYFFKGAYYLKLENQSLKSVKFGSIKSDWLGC
# Protocol: as §1, §2
# MMP13 = MMP13 (Homo sapiens, UniProt P45452); test: MMP compound screening with Fluorimetric SensoLyte 390 Generic MMP Activity Kit, recombinant MMP-13
# Protocol: as §1, §2
# MMP-9, sequence (P14780 107-707 limits assumed, species assumed): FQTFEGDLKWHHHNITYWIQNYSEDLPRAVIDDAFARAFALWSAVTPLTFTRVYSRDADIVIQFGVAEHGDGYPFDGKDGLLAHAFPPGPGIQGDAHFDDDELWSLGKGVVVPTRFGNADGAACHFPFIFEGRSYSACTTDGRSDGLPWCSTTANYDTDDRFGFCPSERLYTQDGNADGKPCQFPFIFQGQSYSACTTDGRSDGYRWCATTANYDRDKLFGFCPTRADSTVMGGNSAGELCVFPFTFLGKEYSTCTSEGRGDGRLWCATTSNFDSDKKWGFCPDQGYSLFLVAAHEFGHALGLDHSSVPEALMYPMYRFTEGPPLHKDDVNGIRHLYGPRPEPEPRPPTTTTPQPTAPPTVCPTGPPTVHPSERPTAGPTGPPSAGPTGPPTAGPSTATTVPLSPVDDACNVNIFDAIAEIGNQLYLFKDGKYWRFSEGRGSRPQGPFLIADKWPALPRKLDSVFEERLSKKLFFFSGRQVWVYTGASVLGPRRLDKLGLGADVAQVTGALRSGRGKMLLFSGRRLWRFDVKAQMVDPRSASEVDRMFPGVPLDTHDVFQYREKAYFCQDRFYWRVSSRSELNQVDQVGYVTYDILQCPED
smiles,measurement,setting,value
CCN1/C(=C/C=C/C=C/C2=[N+](CCCCCC(N)=O)c3ccc4c(S(=O)(=O)O)cc(S(=O)(=O)O)cc4c3C2(C)C)C(C)(C)c2c1ccc1c(S(=O)(=O)[O-])cc(S(=O)(=O)O)cc21 [Cy5.5],inhibition at 0.1 µM,MMP-9; 0.1uM,12%
same,inhibition at 1 µM,MMP-9; 1uM,17%
same,inhibition at 0.1 µM,MMP-8; 0.1uM,0%
same,inhibition at 1 µM,MMP-8; 1uM,1%
same,inhibition at 0.1 µM,MMP-2; 0.1uM,0%
same,inhibition at 1 µM,MMP-2; 1uM,0%
same,inhibition at 0.1 µM,MMP13; 0.1uM,0%
same,inhibition at 1 µM,MMP13; 1uM,7%

# Reference: patent publication EP2644601A1, “Compounds with matrix-metalloproteinase inhibitory activity and imaging agents thereof” (Westfälische Wilhelms-Universität Münster, priority 2012, dated 2013)
